Data: ChEMBL document CHEMBL3832761, “MMV Pathogen Box Bioactivity Data” (2017)
≈ marks a conversion by molar mass, not a printed value.

Tests used:
[1] = system: Mycobacterium tuberculosis; test: AntiMycobacterium tuberculosis activity 1-week GAST/Fe MIC (uM); type: functional; conditions: 168 h
[2] = system: Mycobacterium tuberculosis; test: AntiMycobacterium tuberculosis activity 1-week 7H9/glucose/BSA/Tx MIC (uM); type: functional; conditions: 168 h
[3] = system: HepG2; test: HepG2 glucose CC50 (uM) Cytotoxicity; type: functional
[4] = system: Mycobacterium tuberculosis; test: AntiMycobacterium tuberculosis activity 2-week Alamar Blue 7H9/ADC/Tw MIC (uM); type: functional; conditions: 336 h
[5] = system: Mycobacterium tuberculosis; test: AntiMycobacterium tuberculosis activity 1-week 7H9/cholesterol/BSA/Tx MIC (uM); type: functional; conditions: 168 h
[6] = system: Mycobacterium tuberculosis; test: AntiMycobacterium tuberculosis activity 2-week 7H9/ADC/Tw MIC (uM); type: functional; conditions: 336 h
[7] = system: Mycobacterium tuberculosis; test: AntiMycobacterium tuberculosis activity 2-week 7H9/glucose/BSA/Tx MIC (uM); type: functional; conditions: 336 h
[8] = system: Mycobacterium tuberculosis; test: AntiMycobacterium tuberculosis activity 2-week GAST/Fe MIC (uM); type: functional; conditions: 336 h
[9] = system: Mycobacterium tuberculosis; test: (§1) AntiMycobacterium tuberculosis activity day 10 in 7H9/2.5mM butyrate/pH6/0.1mM nitrite MIC90 (uM); type: functional; conditions: 240 h
[10] = system: HepG2; test: HepG2 galactose CC50 (uM) Cytotoxicity; type: functional
[11] = system: Mycobacterium tuberculosis; test: AntiMycobacterium tuberculosis activity day 21 MIC99 in 7H9/2.5mM butyrate/pH6/0.1mM nitrite MIC99 (uM); type: functional; conditions: 504 h
[12] = system: Mycobacterium tuberculosis; test: AntiMycobacterium tuberculosis activity 1-week 7H9/ADC/Tw MIC (uM); type: functional; conditions: 168 h
[13] = system: Mycobacterium tuberculosis; test: AntiMycobacterium tuberculosis activity 1-week 7H9/DPPC/cholesterol/BSA/Tx MIC (uM); type: functional; conditions: 168 h
[14] = system: Mycobacterium tuberculosis; test: AntiMycobacterium tuberculosis activity 2-week 7H9/DPPC/cholesterol/BSA/Tx MIC (uM); type: functional; conditions: 336 h
[15] = system: Mycobacterium tuberculosis; test: as §1; type: functional; conditions: 240 h; remark: listed apart in the source
[16] = system: Mycobacterium tuberculosis; test: AntiMycobacterium tuberculosis activity 2-week Alamar Blue 7H9/cholesterol/BSA/Tx MIC (uM); type: functional; conditions: 336 h
[17] = system: Mycobacterium tuberculosis; test: AntiMycobacterium tuberculosis activity day 21 in 7H9/2.5mM butyrate/pH6/0.1mM nitrite MIC90 (uM); type: functional; conditions: 504 h
[18] = system: Plasmodium falciparum; test: Antimalarial activity: Gametocytes Plasmodium falciparum NF54 Gametocytes Stage V: inhibition at 10 uM (%); type: functional
[19] = HL60 CC50 (uM) Cytotoxicity; type: functional; conditions: HL-60
[20] = system: Plasmodium falciparum; test: Antimalarial activity: Asexual Blood Stage Plasmodium falciparum 3D7 IC50 (uM); type: functional, organism-based
[21] = system: Plasmodium falciparum; test: Antimalarial activity: Asexual Blood Stage Plasmodium falciparum W2 IC50 (uM); type: functional, organism-based
[22] = system: HepG2; test: Cytotoxicity data HepG2 CC20 (uM); type: functional
[23] = system: HepG2; test: HepG2 inhibition at 10 uM (%) Cytotoxicity; type: functional; conditions: Homo sapiens
[24] = system: Plasmodium berghei; test: Antimalarial activity: Liver Stage Plasmodium berghei sporozoite Luciferase assay: inhibition at 10 uM (%); type: functional
[25] = system: Plasmodium falciparum; test: Antimalarial activity: Asexual Blood Stage Plasmodium falciparum Dd2 IC50 (uM); type: functional, organism-based

Row | Structure (SMILES) | MIC [1] | MIC [2] | CC50 ([3]; Homo sapiens, HepG2) | MIC [4] | MIC [5] | MIC [6] | MIC [7] | MIC [8] | MIC90 [9] | CC50 ([10]; Homo sapiens, HepG2) | MIC [11] | MIC [12] | MIC [13] | Inhibition [18] | CC50 [19] | IC50 [20] | CC20 [22] | inhibition at 10 µM [23] | Inhibition [24] | IC50 [25] | further results
1 | COc1cccc(NC(=O)c2c(NC(=O)c3cccnc3)sc3c2CCC3)c1 | 9.4 µM (≈ 3.7 µg/mL) | 4.7 µM (≈ 1.85 µg/mL) | > 50000 nM | 12.5 µM (≈ 4.92 µg/mL) | 12.5 µM (≈ 4.92 µg/mL) | 12.5 µM (≈ 4.92 µg/mL) | 6.25 µM (≈ 2.46 µg/mL) | 12.5 µM (≈ 4.92 µg/mL) | > 50 µM | > 50000 nM | > 50 µM | 12.5 µM (≈ 4.92 µg/mL) | 9.4 µM (≈ 3.7 µg/mL) | – | – | – | – | – | – | – | MIC [14]: 50 µM (≈ 19.7 µg/mL); MIC90 [15]: 3.12 µM (≈ 1.23 µg/mL); MIC [16]: > 50 µM; MIC90 [17]: > 50 µM
2 | Cc1ccc2nc(C)c(-c3ccn(Cc4ccccc4)n3)n2c1 | 0.78 µM (≈ 0.236 µg/mL) | 50 µM (≈ 15.1 µg/mL) | 35500 nM | 19 µM (≈ 5.75 µg/mL) | 9.4 µM (≈ 2.84 µg/mL) | > 50 µM | ≥ 50 µM | 0.78 µM (≈ 0.236 µg/mL) | > 50 µM | 36100 nM | > 50 µM | 50 µM (≈ 15.1 µg/mL) | 12.5 µM (≈ 3.78 µg/mL) | – | – | – | – | – | – | – | CC50 [3]: > 50000 nM; CC50 [10]: 28600 nM; MIC [14]: 37 µM (≈ 11.2 µg/mL); MIC90 [15]: 6.25 µM (≈ 1.89 µg/mL); MIC [16]: 4.7 µM (≈ 1.42 µg/mL); MIC90 [17]: 50 µM (≈ 15.1 µg/mL)
3 | Cc1ccccc1CN1CCC(O)(c2ccc(Cl)c(C(F)(F)F)c2)CC1 | 0.3 µM (≈ 0.115 µg/mL) | 0.39 µM (≈ 0.15 µg/mL) | > 50000 nM | 0.39 µM (≈ 0.15 µg/mL) | 0.6 µM (≈ 0.23 µg/mL) | 0.39 µM (≈ 0.15 µg/mL) | 1.2 µM (≈ 0.461 µg/mL) | 0.3 µM (≈ 0.115 µg/mL) | 12.5 µM (≈ 4.8 µg/mL) | > 50000 nM | 25 µM (≈ 9.6 µg/mL) | 0.39 µM (≈ 0.15 µg/mL) | 0.6 µM (≈ 0.23 µg/mL) | – | – | – | – | – | – | – | MIC [14]: 0.78 µM (≈ 0.299 µg/mL); MIC90 [15]: 3.12 µM (≈ 1.2 µg/mL); MIC [16]: 0.78 µM (≈ 0.299 µg/mL); MIC90 [17]: 3.12 µM (≈ 1.2 µg/mL)
4 | CC(C)(C)c1cc(C(=O)Nc2cccnc2)cc(C(=O)Nc2cccnc2)c1 | – | – | – | – | – | – | – | – | – | – | – | – | – | 10% | > 50000 nM | 900 nM | 17200 nM | 19% | 12% | 1630 nM | IC50 [21]: 1880 nM
5 | Clc1ccc(CCNc2cc(-c3ccccc3)nc3ncnn23)cc1 | 0.3 µM (≈ 0.105 µg/mL) | 50 µM (≈ 17.5 µg/mL) | > 50000 nM | 6.25 µM (≈ 2.19 µg/mL) | 3.13 µM (≈ 1.09 µg/mL) | > 50 µM | > 50 µM | 1.2 µM (≈ 0.42 µg/mL) | > 50 µM | > 50000 nM | > 50 µM | 50 µM (≈ 17.5 µg/mL) | 4.7 µM (≈ 1.64 µg/mL) | – | – | – | – | – | – | – | MIC [14]: > 50 µM; MIC90 [15]: 6.25 µM (≈ 2.19 µg/mL); MIC [16]: 3.13 µM (≈ 1.09 µg/mL); MIC90 [17]: 25 µM (≈ 8.75 µg/mL)
6 | c1ccc(-c2nc(NC3CCCCC3)cc(C3CC3)n2)nc1 | 25 µM (≈ 7.36 µg/mL) | 37 µM (≈ 10.9 µg/mL) | > 50000 nM | 37 µM (≈ 10.9 µg/mL) | 19 µM (≈ 5.59 µg/mL) | 50 µM (≈ 14.7 µg/mL) | 50 µM (≈ 14.7 µg/mL) | 25 µM (≈ 7.36 µg/mL) | 50 µM (≈ 14.7 µg/mL) | > 50000 nM | > 50 µM | 37 µM (≈ 10.9 µg/mL) | 25 µM (≈ 7.36 µg/mL) | – | – | – | – | – | – | – | MIC [14]: 50 µM (≈ 14.7 µg/mL); MIC90 [15]: 25 µM (≈ 7.36 µg/mL); MIC [16]: 9.4 µM (≈ 2.77 µg/mL); MIC90 [17]: 50 µM (≈ 14.7 µg/mL)
7 | CC(=O)N1CCc2cc3nc(C)cc(C)c3cc21 | 0.15 µM (≈ 0.036 µg/mL) | > 50 µM | > 50000 nM | 4.7 µM (≈ 1.13 µg/mL) | 3.13 µM (≈ 0.752 µg/mL) | > 50 µM | > 50 µM | 0.39 µM (≈ 0.0937 µg/mL) | > 50 µM | > 50000 nM | > 50 µM | > 50 µM | 2.3 µM (≈ 0.553 µg/mL) | – | – | – | – | – | – | – | MIC [14]: 25 µM (≈ 6.01 µg/mL); MIC90 [15]: 6.25 µM (≈ 1.5 µg/mL); MIC [16]: 2.3 µM (≈ 0.553 µg/mL); MIC90 [17]: 12.5 µM (≈ 3 µg/mL)
8 | O=C(NCCc1ccccc1)c1cc(-c2cccnc2)cnc1NCC1CC1 | – | – | – | – | – | – | – | – | – | – | – | – | – | 4% | > 12500 nM | 1290 nM | 12900 nM | 5% | 39% | 2290 nM | IC50 [21]: 1400 nM
9 | CCN(CC)CCCN1CCN(C(=O)c2cccc(-c3noc(C(F)(F)F)n3)c2)CC1 | – | – | – | – | – | – | – | – | – | – | – | – | – | 18% | > 50000 nM | 190 nM | >80000 nM | 0% | 4% | 850 nM | IC50 [21]: 310 nM
10 | CN1CCN(c2nccc3[nH]c(-c4cccc(F)c4)cc23)CC1 | – | – | – | – | – | – | – | – | – | – | – | – | – | 29% | > 12500 nM | 1460 nM | 10400 nM | 2% | 40% | 2100 nM | IC50 [21]: 2630 nM
11 | O=C(Nc1ccnc(-c2cccnc2)n1)c1cc(C(F)(F)F)cc(C(F)(F)F)c1 | – | – | – | – | – | – | – | – | – | – | – | – | – | 10% | > 50000 nM | 1050 nM | >80000 nM | 13% | 0% | > 2000 nM | –
12 | COc1cccc2c(C)nc(N=C(N)N)nc12 | – | – | – | – | – | – | – | – | – | – | – | – | – | 0% | > 50000 nM | 1060 nM | 8380 nM | 20% | 42% | > 2000 nM | –
13 | CCCNC(=O)N1CCC2(CC1)CC(=O)c1cc(C)ccc1O2 | – | – | – | – | – | – | – | – | – | – | – | – | – | 1% | > 50000 nM | 2060 nM | >80000 nM | 0% | 3% | 3120 nM | IC50 [21]: 1570 nM
